Assay results reported in patent US10508109B2 (priority 2015, dated 2019).
Structures can show the parent of a compound that is named as a salt. Where two headings read alike, the source gives them in different places.

Tests used:
A549 = test: Cell-based assay, anti-proliferative activity (Cell Counting Kit-8, 72 hours); conditions: Homo sapiens, read-out: A549 IC50
Procedure, shortened: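 Growth read-out after inhibitor treatment of plated cells; potency expressed as IC50.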

SUV39H2 = SUV39H2 (Homo sapiens (Human), UniProt Q9H5I1); test: biochemical; format: biochemical; conditions: 3H-SAM 100 nM, H3 Histone Peptide 350 nM, room temperature 3 hours
Method: Assay buffer (4 μL) was added into all the wells, including test compound and control wells (except for Sinefungin control wells), using the Multidrop Combi. The plate was centrifuged at 1000 rpm for 1 min. […] SUV39H2 (8 μL, final conc: optimized for each lot of the enzyme based on specific activity) was added by using the Multidrop Combi. The assay plate was centrifuged at 1000 rpm for 1 min. Assay buffer was used as background control, and incubated at room temperature for 3 hours. The reaction was stopped with 20 μL of 2.5 mg/mL Streptavidin SPA beads (final conc. 50 μg/well) in buffer using the Multidrop Combi and centrifuged for 1 min. The plate was loaded into the Trilux-Microbeta counter and a delayed read of 10 hours was made. The radioactive signal was measured at 1 min/well. Sinefungin and the internal standard compound were used as tool compounds to determine assay performance.
• The following calculations were made using the obtained CPM raw data: Software used: XLFit from IDBS.
For each test plate the following results were calculated: • Average, Standard Deviation, and % CV of Background Controls • Average, Standard Deviation, and % CV of Positive Controls • Z′ value of the plate • IC50 values of standard and test compounds (in nM) • R^2 value of fitted concentration response curve • Hill slope coefficient of fitted concentration response curve • Signal to Noise Ratio

[1] = A549 cells, 72 hours exposure, Cell Counting Kit-8

Chain of SUV39H2 (Q9H5I1 whole entry): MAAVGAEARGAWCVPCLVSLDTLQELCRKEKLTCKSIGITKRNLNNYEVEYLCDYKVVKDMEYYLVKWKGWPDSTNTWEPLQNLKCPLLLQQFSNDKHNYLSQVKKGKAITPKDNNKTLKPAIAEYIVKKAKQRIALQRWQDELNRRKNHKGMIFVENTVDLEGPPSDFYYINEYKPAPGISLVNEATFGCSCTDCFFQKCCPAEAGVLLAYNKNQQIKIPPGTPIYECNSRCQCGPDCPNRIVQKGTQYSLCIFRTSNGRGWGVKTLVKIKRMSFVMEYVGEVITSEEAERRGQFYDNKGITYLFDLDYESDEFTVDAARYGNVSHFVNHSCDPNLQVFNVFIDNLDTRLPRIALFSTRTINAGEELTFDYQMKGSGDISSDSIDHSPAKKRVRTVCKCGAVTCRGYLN

Compound | IC50 (A549; [1]) [nM] | IC50 (SUV39H2) [nM] | IC50 (A549; A549, 72 h) [nM]
COc1cc(OC)c(-c2cn3ccc(N[C@H]4C[C@H]5CC[C@@H](C4)N5C(=O)OC(C)C)cc3n2)cc1Cl [Example 391, (1R,3r,5S)-isopropyl 3-((2-(5-chloro-2,4-dimethoxyphenyl)imidazo[1,2-a]pyridin-7-yl)amino)-8-azabicyclo[3.2.1]octane-8-carboxylate] | 990 | 79.3 | 
COc1cc(OC)c(-c2cn3ccc(N[C@H]4CC[C@H](Nc5cncnc5)CC4)cc3n2)cc1Cl [Example 337, (1r,4r)-N^1-(2-(5-chloro-2,4-dimethoxyphenyl)imidazo[1,2-a]pyridin-7-yl)-N^4-(pyrimidin-5-yl)cyclohexane-1,4-diamine] | 830 | 79.9 | 
COc1cc(OC)c(-c2cn3ccc(N[C@H]4CC[C@H](NCc5ccc(N(C)C)cc5)CC4)cc3n2)cc1Cl [Example 419, (1r,4r)-N^1-(2-(5-chloro-2,4-dimethoxyphenyl)imidazo[1,2-a]pyridin-7-yl)-N^4-(4-(dimethylamino)benzyl)cyclohexane-1,4-diamine] | 490 | 82 | 
COc1cc(OC)c(-c2cn3ccc(N4CCN(C(=O)CCCCNC(=O)OC(C)(C)C)CC4)cc3n2)cc1Cl [Example 315, tert-butyl (5-(4-(2-(5-chloro-2,4-dimethoxyphenyl)imidazo[1,2-a]pyridin-7-yl)piperazin-1-yl)-5-oxopentyl)carbamate] | 4400 | 10.5 | 
COc1cc(OC)c(-c2cn3ccc(N[C@H]4CC[C@H](Nc5ncccn5)CC4)cc3n2)cc1Cl [Example 318, (1r,4r)-N^1-(2-(5-chloro-2,4-dimethoxyphenyl)imidazo[1,2-a]pyridin-7-yl)-N^4-(pyrimidin-2-yl)cyclohexane-1,4-diamine hydrochloride] | 180 | 9.73 | 
COc1cc(OC)c(-c2cn3ccc(N4CCN(c5ccnc(NC6CC6)n5)CC4)cc3n2)cc1Cl [Example 331, 4-(4-(2-(5-chloro-2,4-dimethoxyphenyl)imidazo[1,2-a]pyridin-7-yl)piperazin-1-yl)-N-cyclopropylpyrimidin-2-amine] | 820 | 56.9 | 
COc1cc(OC)c(-c2cn3ccc(N4CCC(C(=O)Nc5ccccc5)CC4)cc3n2)cc1Cl [Example 456, 1-(2-(5-chloro-2,4-dimethoxyphenyl)imidazo[1,2-a]pyridin-7-yl)-N-phenylpiperidine-4-carboxamide] | 630 | 25.5 | 
COc1cc(OC)c(-c2cn3ccc(N4CCCN(CC5CCCC5)CC4)cc3n2)cc1Cl [Example 442, 2-(5-chloro-2,4-dimethoxyphenyl)-7-(4-(cyclopentylmethyl)-1,4-diazepan-1-yl)imidazo[1,2-a]pyridine] | 730 | 13.9 | 
COc1cc(OC)c(-c2cn3ccc(N4CCN(c5nc(N)nc(N(C)C)n5)CC4)cc3n2)cc1Cl [Example 440, 6-(4-(2-(5-chloro-2,4-dimethoxyphenyl)imidazo[1,2-a]pyridin-7-yl)piperazin-1-yl)-N^2,N^2-dimethyl-1,3,5-triazine-2,4-diamine] | 620 | 35.8 | 
COc1cc(OC)c(-c2cn3ccc(N[C@H]4C[C@H]5CC[C@@H](C4)N5C(=O)OC(C)(C)C)cc3n2)cc1Cl [Example 444, (1R,3r,5S)-tert-butyl 3-((2-(5-chloro-2,4-dimethoxyphenyl)imidazo[1,2-a]pyridin-7-yl)amino)-8-azabicyclo[3.2.1]octane-8-carboxylate] | 780 | 78 | 
COc1cc(OC)c(-c2cn3ccc(N4CCN(C(C)=O)CC4)cc3n2)cc1Cl [Example 307, 1-(4-(2-(5-chloro-2,4-dimethoxyphenyl)imidazo[1,2-a]pyridin-7-yl)piperazin-1-yl)ethanone] | 2200 | 2 | 
COc1cc(OC)c(-c2cn3ccc(N4CCN(c5ccnc(N6CCC(N)CC6)n5)CC4)cc3n2)cc1Cl [Example 338, 1-(4-(4-(2-(5-chloro-2,4-dimethoxyphenyl)imidazo[1,2-a]pyridin-7-yl)piperazin-1-yl)pyrimidin-2-yl)piperidin-4-amine] | 1200 | 17 | 
COc1cc(OC)c(-c2cn3ccc(N4C[C@H](NCc5ccncc5)[C@@H](O)C4)cc3n2)cc1Cl (relative stereo) [Example 439, trans-1-(2-(5-chloro-2,4-dimethoxyphenyl)imidazo[1,2-a]pyridin-7-yl)-4-((pyridin-4-ylmethyl)amino)pyrrolidin-3-ol] | 10000 | 6.76 | 
CNC1CCCN(c2ncc(N3CCN(c4ccn5cc(-c6cc(Cl)c(OC)cc6OC)nc5c4)CC3)cn2)C1 (stereo not drawn) [Example 428, 1-(5-(4-(2-(5-chloro-2,4-dimethoxyphenyl)imidazo[1,2-a]pyridin-7-yl)piperazin-1-yl)pyrimidin-2-yl)-N-methylpiperidin-3-amine] | 770 | 14.3 | 
CNC1CCN(c2cnc(N3CCN(c4ccn5cc(-c6cc(Cl)c(OC)cc6OC)nc5c4)CC3)nc2)CC1 [Example 458, 1-(2-(4-(2-(5-chloro-2,4-dimethoxyphenyl)imidazo[1,2-a]pyridin-7-yl)piperazin-1-yl)pyrimidin-5-yl)-N-methylpiperidin-4-amine] | 420 | 17.5 | 
CNC1CCN(c2ccnc(N3CCN(c4ccn5cc(-c6cc(Cl)c(OC)cc6OC)nc5c4)CC3)n2)CC1 [Example 426, 1-(2-(4-(2-(5-chloro-2,4-dimethoxyphenyl)imidazo[1,2-a]pyridin-7-yl)piperazin-1-yl)pyrimidin-4-yl)-N-methylpiperidin-4-amine] | 670 | 17.7 | 
COc1cc(OC)c(-c2cn3ccc(N4CCN(c5cc(N6CCN(C)CC6)ncn5)CC4)cc3n2)cc1Cl [Example 377, 2-(5-chloro-2,4-dimethoxyphenyl)-7-(4-(6-(4-methylpiperazin-1-yl)pyrimidin-4-yl)piperazin-1-yl)imidazo[1,2-a]pyridine dihydrochloride] |  | 14.4 | 660
COc1cc(OC)c(-c2cn3ccc(N4CCN(c5cccc(N6CCN(C)CC6)n5)CC4)cc3n2)cc1Cl [Example 381, 2-(5-chloro-2,4-dimethoxyphenyl)-7-(4-(6-(4-methylpiperazin-1-yl)pyridin-2-yl)piperazin-1-yl)imidazo[1,2-a]pyridine] | 770 | 43.1 | 
COc1cc(OC)c(-c2cn3ccc(N4CCN(Cc5ncccn5)CC4)cc3n2)cc1Cl [Example 352, 2-(5-chloro-2,4-dimethoxyphenyl)-7-(4-(pyrimidin-2-ylmethyl)piperazin-1-yl)imidazo[1,2-a]pyridine] | 10000 | 9.25 | 
COc1cc(OC)c(-c2cn3ccc(N[C@H]4C[C@H]5CC[C@@H](C4)N5Cc4ccccc4)cc3n2)cc1Cl [Example 433, N-((1R,3r,5S)-8-benzyl-8-azabicyclo[3.2.1]octan-3-yl)-2-(5-chloro-2,4-dimethoxyphenyl)imidazo[1,2-a]pyridin-7-amine] | 820 | 57.6 | 
COc1cc(OC)c(-c2cn3ccc(N4CC[C@H](NCc5ccnc(Cl)c5)C4)cc3n2)cc1Cl [Example 413, (S)-1-(2-(5-chloro-2,4-dimethoxyphenyl)imidazo[1,2-a]pyridin-7-yl)-N-((2-chloropyridin-4-yl)methyl)pyrrolidin-3-amine dihydrochloride] |  | 6.35 | 770
